Data from US20080089844A1 (priority 2002, published 2008).
“Also recorded” adds a separate entry of the source. Where two headings read alike, the source gives them in different places.

How the values were obtained:
[1] = tested on: primary cultures of myocytes; assay type: cell-based, rat
[2] = tested on: cardiac ventricular myocytes; assay type: cell-based, rat
[3] = tested on: ventricular myocyte, cortex and trachea primary cultures; assay type: cell-based, rat
[4] = tested on: isolated rabbit hearts
[5] = molecular target: Shaker potassium channel (Drosophila melanogaster, UniProt P08510); conditions: cited from earlier work
Chain of Shaker potassium channel (P08510 whole entry, looked up): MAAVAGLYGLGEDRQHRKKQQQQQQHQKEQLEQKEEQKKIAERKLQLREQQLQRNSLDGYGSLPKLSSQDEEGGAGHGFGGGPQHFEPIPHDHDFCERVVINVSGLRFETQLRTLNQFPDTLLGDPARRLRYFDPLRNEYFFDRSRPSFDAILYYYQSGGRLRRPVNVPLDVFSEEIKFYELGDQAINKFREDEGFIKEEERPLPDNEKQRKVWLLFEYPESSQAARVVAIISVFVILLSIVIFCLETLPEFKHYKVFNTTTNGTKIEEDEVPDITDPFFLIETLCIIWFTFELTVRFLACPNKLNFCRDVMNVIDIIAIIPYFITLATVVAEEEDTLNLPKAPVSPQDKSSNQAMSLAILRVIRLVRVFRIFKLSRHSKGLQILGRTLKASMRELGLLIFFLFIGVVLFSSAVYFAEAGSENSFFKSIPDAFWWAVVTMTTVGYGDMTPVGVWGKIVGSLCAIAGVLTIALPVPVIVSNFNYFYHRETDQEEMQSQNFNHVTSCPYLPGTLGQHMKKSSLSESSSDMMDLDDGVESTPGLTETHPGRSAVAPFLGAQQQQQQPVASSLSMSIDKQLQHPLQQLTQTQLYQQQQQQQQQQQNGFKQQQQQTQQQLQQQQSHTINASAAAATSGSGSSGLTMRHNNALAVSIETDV

[6] = rat, in vivo, iv
[7] = molecular target: Kv1.1 (Homo sapiens, UniProt Q09470); conditions: cited from earlier work
Chain of Kv1.1 (Q09470 whole entry, looked up): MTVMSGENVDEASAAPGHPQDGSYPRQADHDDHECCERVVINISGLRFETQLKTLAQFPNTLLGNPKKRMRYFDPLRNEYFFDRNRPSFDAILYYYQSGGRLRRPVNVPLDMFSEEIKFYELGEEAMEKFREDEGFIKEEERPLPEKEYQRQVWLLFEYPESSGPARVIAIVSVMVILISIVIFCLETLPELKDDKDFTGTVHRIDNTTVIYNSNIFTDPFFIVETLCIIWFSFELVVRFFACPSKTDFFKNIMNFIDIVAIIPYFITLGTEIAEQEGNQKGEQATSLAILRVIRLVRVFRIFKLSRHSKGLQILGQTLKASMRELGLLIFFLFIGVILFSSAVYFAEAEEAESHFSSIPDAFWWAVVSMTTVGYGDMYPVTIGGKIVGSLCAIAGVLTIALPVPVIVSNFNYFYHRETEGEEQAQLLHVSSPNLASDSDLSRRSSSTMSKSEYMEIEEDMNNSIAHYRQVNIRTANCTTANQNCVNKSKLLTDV

[8] = tested on: New Zealand White rabbits; conditions: rabbit, in vivo
[9] = molecular target: Kv1.3 (Homo sapiens, UniProt P22001); conditions: cited from earlier work
[10] = molecular target: Kv1.4 (Homo sapiens, UniProt P22459); conditions: cited from earlier work
Chain of Kv1.4 (P22459 whole entry, looked up): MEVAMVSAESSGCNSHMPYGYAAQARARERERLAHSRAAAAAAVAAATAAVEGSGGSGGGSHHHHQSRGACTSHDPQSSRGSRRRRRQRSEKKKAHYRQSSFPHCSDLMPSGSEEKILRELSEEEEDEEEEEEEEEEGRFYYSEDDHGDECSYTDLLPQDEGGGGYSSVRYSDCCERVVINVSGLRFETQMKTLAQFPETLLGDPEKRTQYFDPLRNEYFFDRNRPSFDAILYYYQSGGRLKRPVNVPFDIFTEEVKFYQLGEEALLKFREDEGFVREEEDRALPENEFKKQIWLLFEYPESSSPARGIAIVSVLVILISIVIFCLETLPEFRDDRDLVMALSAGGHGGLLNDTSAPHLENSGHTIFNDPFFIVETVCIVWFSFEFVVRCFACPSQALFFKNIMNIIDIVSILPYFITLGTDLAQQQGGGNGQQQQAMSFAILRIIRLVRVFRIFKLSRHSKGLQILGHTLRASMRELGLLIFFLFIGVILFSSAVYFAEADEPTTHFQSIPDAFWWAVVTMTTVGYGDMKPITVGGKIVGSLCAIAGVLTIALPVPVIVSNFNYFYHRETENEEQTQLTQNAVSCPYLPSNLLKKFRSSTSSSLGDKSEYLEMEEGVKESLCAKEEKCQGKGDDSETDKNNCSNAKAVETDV

[11] = molecular target: Kv2.1 (Homo sapiens, UniProt Q14721); conditions: cited from earlier work
[12] = molecular target: Kv3.4 (Homo sapiens, UniProt Q03721); conditions: cited from earlier work
[13] = molecular target: Kv4.2 (Homo sapiens, UniProt Q9NZV8); conditions: cited from earlier work
[14] = molecular target: eag (Homo sapiens, UniProt O95259); conditions: cited from earlier work
[15] = molecular target: Nav1.2 (Homo sapiens, UniProt Q99250); conditions: cited from earlier work
Chain of Nav1.2 (Q99250 whole entry, looked up): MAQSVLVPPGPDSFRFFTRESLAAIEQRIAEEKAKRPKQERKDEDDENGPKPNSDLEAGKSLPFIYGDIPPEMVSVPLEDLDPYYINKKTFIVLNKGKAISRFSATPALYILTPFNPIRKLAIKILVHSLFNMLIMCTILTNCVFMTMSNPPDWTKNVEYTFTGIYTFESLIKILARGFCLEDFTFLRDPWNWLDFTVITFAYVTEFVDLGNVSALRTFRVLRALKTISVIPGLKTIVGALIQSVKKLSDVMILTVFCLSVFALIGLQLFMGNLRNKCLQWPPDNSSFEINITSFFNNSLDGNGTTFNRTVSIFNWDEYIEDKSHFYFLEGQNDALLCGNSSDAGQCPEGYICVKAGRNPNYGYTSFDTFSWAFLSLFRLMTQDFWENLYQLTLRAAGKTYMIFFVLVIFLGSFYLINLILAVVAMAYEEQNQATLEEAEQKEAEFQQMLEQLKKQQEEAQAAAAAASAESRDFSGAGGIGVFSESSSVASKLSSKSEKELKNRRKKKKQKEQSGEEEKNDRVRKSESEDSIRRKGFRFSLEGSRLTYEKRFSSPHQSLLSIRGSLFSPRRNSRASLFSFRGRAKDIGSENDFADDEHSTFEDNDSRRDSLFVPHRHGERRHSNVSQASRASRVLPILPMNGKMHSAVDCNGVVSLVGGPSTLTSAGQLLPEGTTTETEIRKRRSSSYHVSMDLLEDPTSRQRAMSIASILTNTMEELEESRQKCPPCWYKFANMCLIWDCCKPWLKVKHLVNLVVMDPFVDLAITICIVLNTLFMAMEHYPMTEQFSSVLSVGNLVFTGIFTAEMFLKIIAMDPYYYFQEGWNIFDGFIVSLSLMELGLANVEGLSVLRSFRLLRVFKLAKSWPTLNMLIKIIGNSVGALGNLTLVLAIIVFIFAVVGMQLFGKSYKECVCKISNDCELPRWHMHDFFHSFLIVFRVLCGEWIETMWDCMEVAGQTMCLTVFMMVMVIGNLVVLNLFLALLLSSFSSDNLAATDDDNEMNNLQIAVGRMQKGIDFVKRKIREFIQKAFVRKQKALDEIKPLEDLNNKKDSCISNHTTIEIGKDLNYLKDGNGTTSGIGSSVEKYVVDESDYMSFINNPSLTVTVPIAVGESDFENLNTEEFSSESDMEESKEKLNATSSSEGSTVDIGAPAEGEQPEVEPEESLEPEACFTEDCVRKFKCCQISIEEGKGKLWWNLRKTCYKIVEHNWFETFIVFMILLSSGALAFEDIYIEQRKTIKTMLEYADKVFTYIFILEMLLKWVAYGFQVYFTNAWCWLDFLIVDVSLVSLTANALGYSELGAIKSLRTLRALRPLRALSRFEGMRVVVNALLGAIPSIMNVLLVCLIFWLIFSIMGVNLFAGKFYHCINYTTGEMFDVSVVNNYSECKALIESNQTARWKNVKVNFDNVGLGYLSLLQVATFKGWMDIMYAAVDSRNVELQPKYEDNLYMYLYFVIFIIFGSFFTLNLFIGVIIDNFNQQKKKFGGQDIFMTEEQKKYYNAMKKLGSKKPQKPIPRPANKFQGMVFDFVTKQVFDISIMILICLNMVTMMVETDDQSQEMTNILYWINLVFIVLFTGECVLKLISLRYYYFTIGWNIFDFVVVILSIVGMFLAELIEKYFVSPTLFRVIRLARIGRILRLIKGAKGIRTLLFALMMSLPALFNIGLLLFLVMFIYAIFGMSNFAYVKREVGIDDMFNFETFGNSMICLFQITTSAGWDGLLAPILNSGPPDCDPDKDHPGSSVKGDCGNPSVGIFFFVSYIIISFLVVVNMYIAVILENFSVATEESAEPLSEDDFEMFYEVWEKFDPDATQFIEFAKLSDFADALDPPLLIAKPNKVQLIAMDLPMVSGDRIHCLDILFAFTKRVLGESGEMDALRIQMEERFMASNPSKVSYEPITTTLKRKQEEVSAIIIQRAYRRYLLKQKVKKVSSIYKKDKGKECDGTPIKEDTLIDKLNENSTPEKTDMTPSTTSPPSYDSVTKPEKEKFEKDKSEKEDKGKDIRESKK

[16] = molecular target: Nav1.5 (Homo sapiens, UniProt Q14524); conditions: cited from earlier work
[17] = molecular target: F425G Shaker mutation (Drosophila melanogaster, UniProt P08510, F425G); conditions: cited from earlier work
Chain of F425G Shaker mutation (P08510 whole entry F425G, looked up): as the sequence (P08510 whole entry, looked up) above, with F425G counted along it

[18] = tested on: trout Shaker homolog (Sha1); conditions: cited from earlier work
[19] = molecular target: herg (Homo sapiens, UniProt Q12809); conditions: cited from earlier work
Chain of herg (Q12809 whole entry, looked up): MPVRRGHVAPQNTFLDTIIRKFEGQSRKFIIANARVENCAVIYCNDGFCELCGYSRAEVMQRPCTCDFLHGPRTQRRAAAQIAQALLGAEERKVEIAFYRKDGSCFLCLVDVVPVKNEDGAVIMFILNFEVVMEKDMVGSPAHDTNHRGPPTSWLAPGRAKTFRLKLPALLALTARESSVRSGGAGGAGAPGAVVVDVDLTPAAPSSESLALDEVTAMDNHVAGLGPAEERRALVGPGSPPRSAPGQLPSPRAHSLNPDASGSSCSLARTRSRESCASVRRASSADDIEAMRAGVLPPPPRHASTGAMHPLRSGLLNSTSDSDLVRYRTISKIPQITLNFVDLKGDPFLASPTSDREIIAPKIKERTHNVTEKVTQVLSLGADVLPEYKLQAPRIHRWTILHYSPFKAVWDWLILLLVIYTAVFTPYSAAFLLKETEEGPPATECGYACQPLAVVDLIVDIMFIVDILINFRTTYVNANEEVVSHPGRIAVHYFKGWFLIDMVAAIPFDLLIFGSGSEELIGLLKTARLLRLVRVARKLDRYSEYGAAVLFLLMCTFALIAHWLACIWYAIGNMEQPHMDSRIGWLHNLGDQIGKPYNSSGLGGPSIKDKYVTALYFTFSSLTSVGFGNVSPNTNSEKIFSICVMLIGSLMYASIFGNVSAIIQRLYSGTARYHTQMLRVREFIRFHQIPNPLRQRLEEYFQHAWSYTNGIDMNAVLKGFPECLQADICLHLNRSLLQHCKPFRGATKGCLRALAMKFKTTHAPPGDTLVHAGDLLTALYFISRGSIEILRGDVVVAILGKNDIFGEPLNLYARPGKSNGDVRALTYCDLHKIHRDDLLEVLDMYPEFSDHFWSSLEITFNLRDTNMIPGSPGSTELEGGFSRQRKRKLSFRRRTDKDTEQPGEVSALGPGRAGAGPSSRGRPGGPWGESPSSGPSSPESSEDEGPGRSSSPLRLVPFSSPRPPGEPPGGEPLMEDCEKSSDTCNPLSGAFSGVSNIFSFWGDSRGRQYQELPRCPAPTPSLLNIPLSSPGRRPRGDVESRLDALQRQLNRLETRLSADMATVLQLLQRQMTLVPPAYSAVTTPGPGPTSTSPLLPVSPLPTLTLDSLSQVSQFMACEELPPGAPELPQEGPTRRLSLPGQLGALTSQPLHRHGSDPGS

## Leu-X2-Ser-Cys-Cys-Ser-Leu-Asn-Leu-X1-Leu-Cys-X2-Val-X2-Ala-Cys-X3-X1-Asn-X2-Cys-Cys-Thr [κM-RIIIK]
[1]
  induction of glibenclamide-sensitive currents: induces glibenclamide-sensitive currents in primary cultures of myocytes in a highly potent manner
[2]
  protection against hypoxia-induced depolarization: prevents any hypoxia-induced changes in membrane potential; also recorded: strong protective effect; also recorded: confers protection against hypoxia-induced depolarization
[3]
  protection against hypoxia-induced changes in intracellular calcium: able to provide protection against hypoxia
[4]
  infarct size: reduces the infarct size
[5]
  state dependence of inhibition, open vs closed state affinity: three to four times lower affinity for the open state
[5]; read-out: IC50, antagonist of the Shaker potassium channel
  IC50: ~1200 nM
[6]
  effect on blood pressure: no effect
  effect on heart rate: no effect
[7]
  activity on Kv1.1: no detectable activity
[8]
  infarct size: reduces the infarct size
[8]; iv
  hemodynamic effect: without any hemodynamic effect
[9]
  activity on Kv1.3: no detectable activity
[10]
  activity on Kv1.4: no detectable activity
[11]
  activity on Kv2.1: no detectable activity
[12]
  activity on Kv3.4: no detectable activity
[13]
  activity on Kv4.2: no detectable activity
[14]
  activity on eag: no detectable activity
[15]
  activity on Nav1.2: no detectable activity
[16]
  activity on Nav1.5: no detectable activity
[17]
  effect of F425G Shaker mutation on κM-RIIIK sensitivity: decreases κM-RIIIK sensitivity
[18]
  state dependence of inhibition, open vs closed state affinity: three to four times lower affinity for the open state
[18]; read-out: IC50 on Sha1, closed state
  IC50: 20 nM
[18]; read-out: IC50 on Sha1, open state
  IC50: 60 nM
[19]
  activity on herg: no detectable activity
